Values quoted from earlier work, collected in US5811400A, “Peptide derivatives with δ opioid receptor antagonist or mixed μ agδ antagonist effects” (Astra AB, priority 1994, dated 1998).

Tested on: μ opioid receptors
Details: GPI assay

Question: For `Oc1ccc2c3c1O[C@H]1c4[nH]c5ccccc5c4C[C@@]4(O)[C@@H](C2)N(CC2CC2)CC[C@]314` [naltrindole], which “μ antagonist properties (Ke)” value is on record?
Answer: 29 nM
